According to patent publication US8927721B2, “Naphthyridine derivative” (Shionogi & Co., Ltd., priority 2010, dated 2015):

What was measured:
[1] = target: T1, Recombinant human BACE1 (Homo sapiens, UniProt P56817); experiment: Assay of BACE1 inhibitory activity; assay type: biochemical; conditions: Recombinant human BACE1, 30° C., 3 hours, pH 5.0; read-out: IC50 (50% inhibitory concentration against the enzymatic activity)
T1 construct: purchased R&D Systems
Description: 48.5 μL of substrate peptide solution (Biotin-XSEVNLDAEFRHDSGC-Eu: X=ε-amino-n-capronic acid, Eu=Europium cryptate) was added to each well of 96-hole half-area plate (a black plate: Costar), and after addition of 0.5 μl of the compound of the present invention (N,N′-dimethylformamide solution) and 1 μl of Recombinant human BACE1(R&D Systems), the reaction mixture was incubated at 30° C. for 3 hours. The substrate peptide was synthesized by reacting Cryptate TBPCOOH mono SMP (CIS bio international) with Biotin-XSEVNLDAEFRHDSGC (Peptide Institute, Inc.). The final concentrations of the substrate peptide and Recombinant human BACE1 were adjusted to 18 nmol/L and 7.4 nmol/L, respectively, and the reaction was performed in sodium acetate buffer (50 mmol/L sodium acetate, pH 5.0, 0.008% Triton X-100). After the incubation for reaction, 50 μl of 8.0 μg/ml Streptavidin-XL665 (CIS bio international) dissolved in phosphate buffer (150 mmol/L K2HPO4—KH2PO4, pH 7.0, 0.008% Triton X-100, 0.8 mol/L KF) was added to each well and left stand at 30° C. for 1 hour. After then, fluorescence intensity was measured (excitation wavelength: 320 nm, measuring wavelength: 620 nm and 665 nm) using Wallac 1420 multilabel counter (Perkin Elmer life sciences). Enzymatic activity was determined from counting ratio of each wavelength (10,000×Count 665/Count 620) and 50% inhibitory concentration against the enzymatic activity (IC50) was calculated.

[2] = target: CYP3A4 (Homo sapiens, UniProt P08684); experiment: CYP3A4 fluorescent MBI test; assay type: in vitro ADME; parameters: host or cells: Escherichia coli; conditions: pre-reaction time 0 or 30 minutes, substrate 7-BFC
Description: The CYP3A4 fluorescent MBI test is a test of investigating enhancement of CYP3A4 inhibition of the compound of the present invention by a metabolism reaction. 7-benzyloxytrifluoromethylcoumarin (7-BFC) is debenzylated by the CYP3A4 enzyme (enzyme expressed in Escherichia coli) and a metabolite, 7-hydroxytrifluoromethylcoumarin (7-HFC) which emits fluorescent light is produced. The test is performed using 7-HFC production reaction as an index.
The reaction conditions are as follows: substrate, 5.6 μmol/L 7-BFC: pre-reaction time, 0 or 30 minutes; reaction time, 15 minutes; reaction temperature, 25° C. […]
An enzyme in a K-Pi buffer (pH 7.4) and the compound of the present invention solution as a pre-reaction solution were added to a 96-well plate at the composition of the pre-reaction, a part of it was transferred to another 96-well plate so that it was 1/10 diluted by a substrate in a K-Pi buffer, NADPH as a co-factor was added to initiate a reaction as an index (without preincubation) and, after a predetermined time of a reaction, acetonitrile/0.5 mol/L Tris (trishydroxyaminomethane)=4/1 was added to stop the reaction. […] For the plate on which each index reaction had been performed, a fluorescent value of 7-HFC which is a metabolite was measured with a fluorescent plate reader. […]

[3] = system: Aβ production in Neuroblastoma SH-SY5Y cells (SH/APPwt); experiment: Measurement of β-amyloid (Aβ) production inhibiting effect in cell; assay type: cell-based; conditions: Homo sapiens, 24 hours, Amyloid β1-40 HTRF, read-out: IC50 (amount needed to inhibit Aβ production by 50%)
Description: Neuroblastoma SH-SY5Y cells (SH/APPwt) with human wild-type 13-APP excessively expressed therein were prepared at 8×10^5 cells/mL, and 150 μl portions thereof were inoculated into each well of a 96-well culture plate (Falcon). The cells were cultured for 2 hours at 37° C. in a 5% gaseous carbon dioxide incubator. Then, a solution which have been preliminarily prepared by adding and suspending the compound of the present invention (DMSO (dimethyl sulfoxide) solution) so as to be 2 μl/50 μl medium was added to the cell sap. Namely, the final DMSO concentration was 1%, and the amount of the cell culture was 200 μl. After the incubation was performed for 24 hours from the addition of the test compound, 100 μl of the culture supernatant was collected from each fraction. The amount of the Aβ in each fraction was measured.
The Aβ amount was measured as follows. 10 μl of a homogeneous time resolved fluorescence (HTRF) measurement reagent (Amyloid β1-40 peptide; IBA Molecular Holding, S.A.) and 10 μl of the culture supernatant were put into a 384-well half area microplate (black microplate, Costar) and mixed with each other, and then left standing overnight at 4° C. while the light was shielded. Then, the fluorescence intensity (excitation wavelength: 337 nm, measurement wavelength: 620 nm and 665 nm) was measured with Wallac 1420 multilabel counter (Perkin Elmer life sciences). The Aβ amount was determined from the count rate at each measurement wavelength (10000×Count 665/Count 620), and the amount needed to inhibit A6 production by 50% (IC50) was calculated from at least six different dosages.

[4] = Solubility test (turbidity, JP-I, JP-II); assay type: physicochemical; conditions: kinetic from dmso stock, turbidity after 4 hours, 2% DMSO
Description: A 2-fold dilution series (12 points) of a 10 mM solution of a compound of the present invention in DMSO was added to a medium (JP-I, JP-II) (2%), and solubility was assessed by 3 stages (High; >40 μM, Medium; 3-40 μM, Low; <3 μM) from a turbidity after 4 hours.

T1 sequence (P56817 46-501): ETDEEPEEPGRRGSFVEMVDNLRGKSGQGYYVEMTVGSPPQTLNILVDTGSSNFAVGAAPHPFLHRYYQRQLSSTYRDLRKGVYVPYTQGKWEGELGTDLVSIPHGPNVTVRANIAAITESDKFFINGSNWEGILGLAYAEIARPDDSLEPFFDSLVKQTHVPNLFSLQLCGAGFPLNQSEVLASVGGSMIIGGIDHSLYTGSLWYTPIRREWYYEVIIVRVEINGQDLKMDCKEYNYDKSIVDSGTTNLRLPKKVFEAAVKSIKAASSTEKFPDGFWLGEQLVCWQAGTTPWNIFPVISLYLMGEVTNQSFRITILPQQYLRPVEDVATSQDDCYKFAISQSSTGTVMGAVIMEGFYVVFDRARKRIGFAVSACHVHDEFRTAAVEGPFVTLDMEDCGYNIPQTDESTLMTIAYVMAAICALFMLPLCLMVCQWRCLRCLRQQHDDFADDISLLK
Sequence of CYP3A4 (P08684 whole entry): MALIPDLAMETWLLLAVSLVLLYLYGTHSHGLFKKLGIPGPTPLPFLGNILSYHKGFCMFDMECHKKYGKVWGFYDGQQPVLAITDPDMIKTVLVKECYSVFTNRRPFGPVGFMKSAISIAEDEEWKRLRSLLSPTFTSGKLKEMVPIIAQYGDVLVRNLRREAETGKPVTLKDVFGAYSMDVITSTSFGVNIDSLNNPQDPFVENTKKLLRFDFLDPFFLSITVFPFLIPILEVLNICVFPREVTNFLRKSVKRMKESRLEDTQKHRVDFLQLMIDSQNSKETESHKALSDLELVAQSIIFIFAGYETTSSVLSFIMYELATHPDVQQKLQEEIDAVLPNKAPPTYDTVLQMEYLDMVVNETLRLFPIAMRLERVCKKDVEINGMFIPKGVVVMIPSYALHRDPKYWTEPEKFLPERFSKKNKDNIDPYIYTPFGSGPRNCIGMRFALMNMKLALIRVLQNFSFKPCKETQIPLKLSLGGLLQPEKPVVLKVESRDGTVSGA

CC1(c2cc(NC(=O)c3ccc(C#N)cn3)ccc2F)Cc2ncccc2C(N)=N1 (stereo not drawn) [Compound I-1]
IC50 [1]: 0.054 µM | CYP3A4 fluorescent MBI (difference between IC50 values without and with preincubation) [2]: (−) (when the difference is 3 μM or less, this was defined as (−))

CC1(c2cc(NC(=O)c3ccc(Cl)cn3)ccc2F)Cc2ccncc2C(N)=N1 (stereo not drawn) [Compound I-3]
IC50 [1]: ≤ 1 µM

CC1(c2cc(NC(=O)c3ccc(C#N)cn3)ccc2F)Cc2cccnc2C(N)=N1 (stereo not drawn) [Compound I-4]
IC50 [1]: ≤ 1 µM

CC1(c2cc(NC(=O)c3ccc(C#N)cn3)ccc2F)Cc2cncc(F)c2C(N)=N1 (stereo not drawn) [Compound I-6]
IC50 [1]: ≤ 1 µM

CC1(c2cc(NC(=O)c3ccc(C#N)cn3)ccc2F)Cc2ncc(F)cc2C(N)=N1 (stereo not drawn) [Compound I-7]
IC50 [3]: 0.002 µM | IC50 [1]: ≤ 1 µM

CC1(c2cc(NC(=O)c3ccc(C#N)cn3)ccc2F)Cc2ccncc2C(N)=N1 (stereo not drawn) [Compound I-8]
IC50 [1]: ≤ 1 µM

CC1(c2cc(NC(=O)c3ccc(C#N)cn3)ccc2F)Cc2c(F)cncc2C(N)=N1 (stereo not drawn) [Compound I-9]
solubility at 4 h ([4]; JP-I medium, pH 1.2, simulated gastric fluid, JP-I): > 40 µM | solubility at 4 h ([4]; JP-II medium, pH 6.8, aqueous buffer, JP-II): > 40 µM | IC50 [1]: ≤ 1 µM

CC1(c2cc(NC(=O)c3ccc(C#N)cn3)ccc2F)Cc2c(ccnc2F)C(N)=N1 (stereo not drawn) [Compound I-10]
IC50 [1]: ≤ 1 µM

CC1(c2cc(NC(=O)c3ccc(Cl)cn3)ccc2F)Cc2cnccc2C(N)=N1 (stereo not drawn) [Compound I-11]
IC50 [1]: ≤ 1 µM

CC1(c2cc(NC(=O)c3ncc(F)cc3F)ccc2F)Cc2cnccc2C(N)=N1 (stereo not drawn) [Compound I-12]
IC50 [1]: ≤ 1 µM

CC1(c2cc(NC(=O)c3ccc(C(F)(F)F)cn3)ccc2F)Cc2cnccc2C(N)=N1 (stereo not drawn) [Compound I-13]
IC50 [1]: ≤ 1 µM

COc1cnc(C(=O)Nc2ccc(F)c(C3(C)Cc4cnccc4C(N)=N3)c2)cn1 (stereo not drawn) [Compound I-14]
IC50 [1]: ≤ 1 µM

Cc1cnc(C(=O)Nc2ccc(F)c(C3(C)Cc4cnccc4C(N)=N3)c2)cn1 (stereo not drawn) [Compound I-15]
IC50 [1]: ≤ 1 µM

CC#CCOc1cnc(C(=O)Nc2ccc(F)c(C3(C)Cc4cnccc4C(N)=N3)c2)cn1 (stereo not drawn) [Compound I-16]
IC50 [1]: ≤ 1 µM

CC1(c2cc(NC(=O)c3ccc(Cl)cn3)ccc2F)Cc2c(F)cncc2C(N)=N1 (stereo not drawn) [Compound I-17]
IC50 [1]: ≤ 1 µM

CC1(c2cc(NC(=O)c3ncc(F)cc3F)ccc2F)Cc2c(F)cncc2C(N)=N1 (stereo not drawn) [Compound I-18]
IC50 [1]: ≤ 1 µM

CC1(c2cc(NC(=O)c3ccc(C(F)(F)F)cn3)ccc2F)Cc2c(F)cncc2C(N)=N1 (stereo not drawn) [Compound I-19]
IC50 [1]: ≤ 1 µM

COc1cnc(C(=O)Nc2ccc(F)c(C3(C)Cc4c(F)cncc4C(N)=N3)c2)cn1 (stereo not drawn) [Compound I-20]
IC50 [1]: ≤ 1 µM

Cc1cnc(C(=O)Nc2ccc(F)c(C3(C)Cc4c(F)cncc4C(N)=N3)c2)cn1 (stereo not drawn) [Compound I-21]
IC50 [1]: ≤ 1 µM

CC#CCOc1cnc(C(=O)Nc2ccc(F)c(C3(C)Cc4c(F)cncc4C(N)=N3)c2)cn1 (stereo not drawn) [Compound I-22]
IC50 [1]: ≤ 1 µM

CC1(c2cc(NC(=O)c3ccc(C(F)(F)F)cn3)ccc2F)Cc2ccncc2C(N)=N1 (stereo not drawn) [Compound I-23]
IC50 [1]: ≤ 1 µM

COc1cnc(C(=O)Nc2ccc(F)c(C3(C)Cc4ccncc4C(N)=N3)c2)cn1 (stereo not drawn) [Compound I-24]
IC50 [1]: ≤ 1 µM

Cc1cnc(C(=O)Nc2ccc(F)c(C3(C)Cc4ccncc4C(N)=N3)c2)cn1 (stereo not drawn) [Compound I-25]
IC50 [1]: ≤ 1 µM

CC#CCOc1cnc(C(=O)Nc2ccc(F)c(C3(C)Cc4ccncc4C(N)=N3)c2)cn1 (stereo not drawn) [Compound I-26]
IC50 [1]: ≤ 1 µM

CC#CC(=O)Nc1ccc(F)c(C2(C)Cc3cnccc3C(N)=N2)c1 (stereo not drawn) [Compound I-27]
IC50 [1]: 0.308 µM

COCC#CC(=O)Nc1ccc(F)c(C2(C)Cc3cnccc3C(N)=N2)c1 (stereo not drawn) [Compound I-28]
IC50 [3]: ≤ 3 µM | IC50 [1]: ≤ 3 µM

CCCC#CC(=O)Nc1ccc(F)c(C2(C)Cc3cnccc3C(N)=N2)c1 (stereo not drawn) [Compound I-29]
IC50 [1]: ≤ 3 µM

CC1(c2cc(NC(=O)C#Cc3ccccc3)ccc2F)Cc2cnccc2C(N)=N1 (stereo not drawn) [Compound I-30]
IC50 [3]: 0.046 µM | IC50 [1]: 0.147 µM

CC1(c2cc(NC(=O)C#CC3CC3)ccc2F)Cc2cnccc2C(N)=N1 (stereo not drawn) [Compound I-31]
IC50 [1]: ≤ 3 µM

CCCCC#CC(=O)Nc1ccc(F)c(C2(C)Cc3cnccc3C(N)=N2)c1 (stereo not drawn) [Compound I-32]
IC50 [1]: ≤ 3 µM

CCC#CC(=O)Nc1ccc(F)c(C2(C)Cc3cnccc3C(N)=N2)c1 (stereo not drawn) [Compound I-33]
IC50 [1]: ≤ 1 µM

CC#CC(=O)Nc1ccc(F)c(C2(C)Cc3c(F)cncc3C(N)=N2)c1 (stereo not drawn) [Compound I-34]
IC50 [3]: 0.02 µM | IC50 [1]: ≤ 1 µM
